Laboratory results taken from patent US8048908B2, “11β-hydroxysteroid dehydrogenase type 1 active compounds” (High Point Pharmaceuticals, LLC, priority 2006, dated 2011).

Key:
h-11βHSD1 = molecular target: T1, h-11βHSD1 (Homo sapiens, UniProt P28845); experiment: 11βHSD1 Enzyme Assay (scintillation proximity assay); type: biochemical; settings: yeast extract expressing h-11βHSD1, 120 nM 3H-cortisone, 4 mM β-NADPH, 60 min at 30° C.
T1 construct: made in house
Protocol: ^3H-cortisone and anti-rabbit Ig coated scintillation proximity assay (SPA) beads were purchased from Amersham Pharmacia Biotech, —NADPH was from Sigma and rabbit anti-cortisol antibodies were from Fitzgerald. An extract of yeast transformed with h-11βHSD1 (Hult et al., FEBS Lett., 441, 25 (1998)) was used as the source of enzyme. The test compounds were dissolved in DMSO (10 mM). All dilutions were performed in a buffer containing 50 mM TRIS-HCl (Sigma Chemical Co), 4 mM EDTA (Sigma Chemical Co), 0.1% BSA (Sigma Chemical Co), 0.01% Tween-20 (Sigma Chemical Co) and 0.005% bacitracin (Novo Nordisk A/S), pH=7.4. Optiplate 96 wells plates were supplied by Packard. The amount of ^3H-cortisol bound to the SPA beads was measured on Top-Count NXT, Packard.
h-11βHSD1, 120 nM ^3H-cortisone, 4 mM β-NADPH, antibody (1:200), serial dilutions of test compound and SPA particles (2 mg/well) were added to the wells. The reaction was initiated by mixing the different components and was allowed to proceed under shaking for 60 min at 30° C. The reaction was stopped be the addition of 10 fold excess of a stopping buffer containing 500 μM carbenoxolone and 1 μM cortisone. Data was analysed using GraphPad Prism software.

11βHSD1 = molecular target: T2, 11βHSD1 (Homo sapiens, UniProt P28845); settings: lean healthy volunteers and people with type 2 diabetes; cited from earlier work
T2 construct: host or cells: human subjects (in vivo)
T2 sequence (P28845 whole entry): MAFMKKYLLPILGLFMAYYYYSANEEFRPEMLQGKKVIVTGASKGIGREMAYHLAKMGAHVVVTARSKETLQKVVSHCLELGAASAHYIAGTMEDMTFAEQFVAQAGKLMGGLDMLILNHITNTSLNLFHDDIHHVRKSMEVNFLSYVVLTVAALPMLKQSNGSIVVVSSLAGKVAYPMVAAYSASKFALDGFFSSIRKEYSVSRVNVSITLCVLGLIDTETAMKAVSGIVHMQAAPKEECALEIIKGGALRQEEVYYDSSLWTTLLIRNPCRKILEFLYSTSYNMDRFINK

T1 sequence (P28845 whole entry): as above

Row | Compound | IC50 (h-11βHSD1) [nM] | insulin sensitivity (11βHSD1)
1 | CN(C(=O)C1CC1)C1CCN(c2ccc(C(=O)N3CC4CCC(CC4)C3)cc2)C1 (stereo not shown) [Example 1-31, Cyclopropanecarboxylic acid {1-[4-(3-aza-bicyclo[3.2.2]-nonane-3-carbonyl)-phenyl]-pyrrolidin-3-yl}-methyl-amide] | 128 | 
2 | CC1(C)CC2CC(C)(CN2C(=O)c2ccc(N3CCC(C(=O)NC4CCC(O)CC4)C3)cc2)C1 (stereo not shown) [Example 1-7, 1-[4-(1,3,3-Trimethyl-6-aza-bicyclo[3.2.1]octane-6-carbonyl)-phenyl]-pyrrolidine-3-carboxylic acid (4-hydroxy-cyclohexyl)-amide] | 125 | 
3 | CN(C1CCN(c2ccc(C(=O)N3CC4CCC(CC4)C3)cc2)C1)S(=O)(=O)Cc1ccccc1 (stereo not shown) [Example 1-33, N-{1-[4-(3-Aza-bicyclo[3.2.2]-nonane-3-carbonyl)-phenyl]-pyrrolidin-3-yl}-N-methyl-phenyl-methanesulfonamide] | 43 | 
4 | CC1(C)[C@@H](OC(=O)CCC(=O)O)CC[C@]2(C)[C@H]3C(=O)C=C4[C@@H]5C[C@@](C)(C(=O)O)CC[C@]5(C)CC[C@@]4(C)[C@]3(C)CC[C@@H]12 [carbenoxolone] |  | improves insulin sensitivity
